According to patent US20180078576A1, “SULPHATED XYLANS FOR TREATMENT OR PROPHYLAXIS OF RESPIRATORY DISEASES” (Paradigm Biopharmaceuticals Limited, priority 2007, published 2018):

Experiments:
eotaxin-2 = molecular target: T1, eotaxin-2 (Homo sapiens, UniProt O00175); test: BIAcore inhibition of eotaxin-2 binding to immobilized heparin; conditions: BIAcore chip, FIG. 3E
T1 sequence (O00175 27-119): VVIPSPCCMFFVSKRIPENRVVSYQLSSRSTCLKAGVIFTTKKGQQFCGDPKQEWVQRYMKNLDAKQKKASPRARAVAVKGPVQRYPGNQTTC
From the text: The optical phenomenon of surface plasmon resonance is used to monitor physical interactions between molecules. Passing a solution of a potential protein ligand (e.g. IL-4, IL-5 or eotaxin) over a sensor surface to which a target (e.g. heparin) is coupled monitors the real-time binding of protein ligands to the immobilized target. Detection is achieved by measuring refractive index changes very close to the sensor surface. When the refractive index is altered, the angle at which plasmon resonance occurs changes and this change directly correlates with the amount of protein interacting with the surface. A BIAcore 2000 is conveniently used. […]
Biotinylated heparin is immobilized on the biosensor chip. […] Solutions containing potential protein ligands of interest are injected over the sensor chip surface, and the binding is measured in real time (Fernig, In: Proteoglycan protocols, Ed. R. V. Iozzo, Humana Press, Totowa, N.J., USA, 2001). Baculovirus expressed recombinant human IL-4 (rhIL-4) and baculovirus expressed recombinant human IL-5 (rhIL-5) readily bind to heparin immobilized by this method (see PCT/AU2005/000551). […] Similarly, recombinant human eotaxin (CCL11) expressed in E. coli binds readily to immobilized heparin and binding is specific as there is little eotaxin binding to sensor chips lacking heparin. […]

[1] = tested on: male C57Bl/6J mice exposed to cigarette smoke; test: Mouse model of emphysema/COPD, chronic cigarette smoke exposure; assay type: in vivo; conditions: chronic smoke exposure 6 months, PPS once a day
Description: A mouse model of emphysema was used. Acute and chronic exposure of mice to cigarette smoke lead to lung responses that in part mimic the inflammatory and structural changes observed in COPD. In this model male C57Bl/6J mice are subjected to acute and chronic smoke exposure, with normal room air being the control situation. In the acute study mice were exposed to either room air or to the smoke of five cigarettes (approximately 12 mg of tar and 0.9 mg of nicotine) for 20 minutes. In the chronic study mice were exposed to either room air or to the smoke of three cigarettes/day for 5 days/week for 6 months. The 4 groups of mice were then further divided so that mice within each group also received PPS via an inhaled route.
The animals in the chronic study received PPS once a day for the duration of the experiment. At the completion of the experiment animals were killed and the lungs fixed intratracheally with formalin (5%) and lung volume was measured by water displacement. The lung tissue was prepared for histochemistry and immunohistochemistry, the lung tissues being stained for hematoxylin-eosin and/or periodic acid-Schiff or with antibodies to the macrophage marker Mac-3. The level of desmosine in the lung tissue was also determined. Desmosine is an elastin-specific imino acid; the assessment of desmosine in the lung is taken as an indicator of the lung elastin content. […]

IC50 (eotaxin-2): ~15 nM
Substance: Pentosan polysulfate [PPS]
Overall effect in chronic COPD model [1]: acting as an anti-inflammatory agent
